# Read-outs that look alike come from different tables or passages of the source.
# Legend:
# HL-60/vinc = assay: Antiproliferative MTT assay, HL-60/vinc; format: cell-based, human; details: for IR HL-60/vinc: IR = IC50 HL-60/vinc / IC50 HL-60; for SI HL-60/vinc: SI = IC50 BALB/3T3 / IC50 HL-60/vinc; for IC50: vincristine-resistant subline, 72 h, MTT, mean ± SD, NA: not active in concentrations used (up to 100 µg/mL), read-out: IC50 HL-60/vinc
# Description: (§1) Four human cancer cell lines and one normal cell line were used to evaluate anticancer activity of SAL and its N-benzyl amides: human acute promyelocytic leukemia (HL-60) and its vincristine resistant subline (HL-60/vinc), human colon adenocarcinoma cell lines sensitive (LoVo) and resistant to doxorubicin (LoVo/dx) as well as also normal murine embryonic fibroblast cell line (BALB/3T3). The BALB/3T3 cell line was purchased from the American Type Culture Collection (ATCC Rockville, MD, USA), HL-60 cell line from European Type Culture Collection by courtesy of Professor Spik and Dr Mazurier (Laboratory of Biological Chemistry USTL, Lille, France) and HL-60/vinc, LoVo and LoVo/dx by courtesy of Prof. E. Borowski (Technical University of Gdańsk, Gdańsk, Poland). All the cell lines are maintained in the Institute of Immunology and Experimental Therapy (IIET), Wrocław, Poland.
# (§2) Human leukemia cells were cultured in ISCOVE medium (IIET, Wroclaw, Polond) containing 10% fetal bovine serum and 2 mM L-glutamine (Sigma Aldrich) and 1 µg/100 mL […] for HL-60/vinc (Sigma Aldrich). Human colon adenocarcinoma cell lines were cultured in mixture of OptiMEM and RPMI 1640 (1:1) medium (IIET) supplemented with 5% fetal bovine serum (Thermo Fisher Scientific, Waltham, MA, USA), 2 mM L-glutamine, 1 mM sodium pyruvate (Sigma Aldrich) and 10 µg/100 mL doxorubicin for LoVo/dx (Sigma Aldrich). Murine embryonic fibroblast cells were cultured in Dulbecco medium (Gibco, Darmstadt, Germany) supplemented with 10% fetal bovine serum (Thermo Fisher Scientific) and 2 mM L-glutamine (Sigma Aldrich). All culture media contained antibiotics: 100 U/mL penicillin (Sigma Aldrich) and 100 µg/mL streptomycin (Polfa-Tarchomin, City, Poland). All cell lines were cultured during entire experiment in humid atmosphere at 37 °C and 5% CO2.
# (§3) Twenty four hours before adding the tested compounds all cell lines were seeded in 96-well plates (Sarstedt, Nümbrecht, Germany) in appropriate media with 10^4 cells per well. All cell lines were exposed to each tested agent at four different concentrations from the range 100 to 0.1 µg/mL for 72 h. The cells were also exposed to the reference drugs: cisplatin (Accord, London, UK) and doxorubicin hydrochloride (Fluka, St. Louis, MO, USA). Additionally, all cell lines were exposed to DMSO (the solvent used for tested compounds, Sigma Aldrich) at the concentrations corresponding to those in the tested agent dilutions. For adherent cells sulphorodamine B assay was performed and MTT assay for leukemia cells.
# (§4) Proliferation inhibition of leukemia cells by tested compounds was measured by means of MTT assay. Thus, 20 µL of 3-(4,5-dimethylthiazol-2-yl)-2,5-diphenyl tetrazolium bromide solution (Sigma Aldrich) were added to each well and plates were left in cell incubator for 4 h to allow the cells to metabolize yellow MTT to blue formazan. Then, the lysing mixture consisting of 225 mL dimethylformamide, 67.5 g sodium dodecyl sulfate (both from Sigma Aldrich) and 275 mL of distilled water was added in 80 µL volume per well. Plates were incubated for 24 h for the formazan crystals to be released from cells, dissolved and then absorbance of each well was read at Synergy H4 photometer (BioTek Instruments) at 570 nm wavelength.
# (§5) Results are presented as mean IC50 (concentration of the tested compound that inhibits cell proliferation by 50%) ± standard deviation. IC50 values were calculated in Cheburator 1.0.2, Dmitry Nevozhay software for each experiment. Compounds at each concentration were tested in triplicates in single experiment and each experiment was repeated at least three times independently. The IR was defined as the ratio of IC50 for a given compound calculated for resistant cell line to that measured for its parental drug sensitive cell line (Table 4).
# HL-60 = assay: Antiproliferative MTT assay, HL-60; format: cell-based, human; details: for IC50: 72 h, MTT, mean ± SD, NA: not active in concentrations used (up to 100 µg/mL), read-out: IC50 HL-60; for SI HL-60: SI = IC50 BALB/3T3 / IC50 HL-60
# Description: as §1, §2, §3, §4, §5
# BALB/3T3 = assay: Antiproliferative SRB assay, normal fibroblasts BALB/3T3; format: cell-based; details: 72 h, mean ± SD, read-out: IC50 BALB/3T3 (normal cells)
# Description: as §1, with “Poland. […]” for “Poland.”
# After 72 h of incubation with tested compounds the cells were fixed in situ by gently adding of 50 µL per well of cold 50% trichloroacetic acid TCA (Avantor Performance Materials, City, Poland) and were incubated at 4 °C for 1 h. […] Absorbance of each solution was read at Synergy H4 photometer (BioTek Instruments, Winooski, VT, USA) at 540 nm wavelength. […]
# LoVo/dx = assay: Antiproliferative SRB assay, LoVo/dx; format: cell-based, human; details: for IR LoVo/DX: IR = IC50 LoVo/dx / IC50 LoVo; for SI LoVo/DX: SI = IC50 BALB/3T3 / IC50 LoVo/dx; for IC50: doxorubicin resistant subline, 72 h, SRB, mean ± SD, read-out: IC50 LoVo/dx
# Description: as §1, §2, §3
# (§6) After 72 h of incubation with tested compounds the cells were fixed in situ by gently adding of 50 µL per well of cold 50% trichloroacetic acid TCA (Avantor Performance Materials, City, Poland) and were incubated at 4 °C for 1 h. Then the wells were washed four times with water and air-dried. Next, 50 µL of 0.2% solution of sulphorodamine B (Sigma Aldrich) in 1% acetic acid (Avantor Performance Materials) were added to each well and plates were incubated at room temperature for 0.5 h. After incubation time, unbound dye was removed by washing plates four times with 1% acetic acid, whereas the stain bound to cells was solubilized with 150 µL of 10 mM Tris base (Sigma Aldrich). Absorbance of each solution was read at Synergy H4 photometer (BioTek Instruments, Winooski, VT, USA) at 540 nm wavelength.
# as §5
# LoVo = assay: Antiproliferative SRB assay, LoVo; format: cell-based, human; details: for IC50: 72 h, SRB, mean ± SD, read-out: IC50 LoVo; for SI LoVo: SI = IC50 BALB/3T3 / IC50 LoVo
# Description: as §1, §2, §3, §6, §5
"IC50 (HL-60/vinc; Homo sapiens, HL60/vinc)","IC50 (HL-60; Homo sapiens, HL-60)","IC50 (LoVo/dx; Homo sapiens, LoVo/DX)","IC50 (LoVo; Homo sapiens, LoVo)",SMILES,IR HL-60/vinc (HL-60/vinc),SI HL-60/vinc (HL-60/vinc),IC50 (HL-60/vinc),IC50 (HL-60),SI HL-60 (HL-60),IC50 (BALB/3T3; normal murine embryonic fibroblasts),IR LoVo/DX (LoVo/dx),SI LoVo/DX (LoVo/dx),IC50 (LoVo/dx),IC50 (LoVo),SI LoVo (LoVo),"IC50 (BALB/3T3; Mus musculus, BALB/3T3, normal murine embryonic fibroblasts)"
,,,,"N.N.[Cl][Pt][Cl] [cisplatin, reference compound]",6.87,0.77,6.87 ± 1.63 µM,1 ± 0.23 µM,5.30,5.3 ± 2.93 µM,1.41,1.02,5.2 ± 1.93 µM,3.7 ± 1.2 µM,1.43,
0.88 ± 0.26 µM,0.04 ± 0.04 µM,5.46 ± 1.56 µM,0.15 ± 0.06 µM,"COc1cccc2c1C(=O)c1c(O)c3c(c(O)c1C2=O)C[C@@](O)(C(=O)CO)C[C@@H]3O[C@H]1C[C@H](N)[C@H](O)[C@H](C)O1 [doxorubicin, reference compound]",22.00,0.20,,,4.50,,36.40,0.03,,,1.20,0.18 ± 0.07 µM

# — PMC6271077, “Synthesis, Anticancer and Antibacterial Activity of Salinomycin N-Benzyl Amides” (Molecules, 2014)
